In brackets after ≈: the same amount, converted by molar mass. Several values for one entry are separate records, joined by “and”; a condition that tells them apart may be missing. Identical values can stand only once. Like-named read-outs stand apart in the source and are kept apart here.
Key:
Assay in all cases: Broth microdilution MIC, Example 7 (NCL812 and analogues)
VRE = format: cell-based, Enterococcus spp.; conditions: for activity against VRE among analogues: MIC testing, two VRE strains; for MIC (μg/ml) at 24 hours, VRE 1: VRE 1, 24 hours; for MIC (μg/ml) at 24 hours, VRE 2: VRE 2, 24 hours; for MIC: Enterococcus, 24 h
In short: (§1)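 Duplicates per isolate, repeated a third time if >one two-fold dilution apart. MIC50, MIC20 and range calculated per bacterial group.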

Pseudomonas aeruginosa = format: cell-based; conditions: for MIC: Pseudomonas aeruginosa, 24 h, read-out: MIC (μg/ml) at 24 hours P. aeruginosa, P. aeruginosa, 24 hours
Escherichia coli = format: cell-based; conditions: E. coli, 24 hours; for MIC: Escherichia coli, read-out: MIC (μg/ml) at 24 hours E. coli
MRSA = format: cell-based, Staphylococcus aureus; conditions: for activity against MRSA among analogues: MIC testing, two MRSA strains; for MIC (μg/ml) at 24 hours, MRSA 1: MRSA 1, 24 hours; for MIC (μg/ml) at 24 hours, MRSA 2: MRSA 2, 24 hours; for MIC: Staphylococcus aureus; for MIC / MRSA: MRSA
In short: as §1

[1] = VRE, read-out: MIC (μg/ml) at 24 hours VRE 1, VRE 1, 24 hours
[2] = VRE, read-out: MIC (μg/ml) at 24 hours VRE 2, VRE 2, 24 hours
[3] = 24 h, read-out: MIC (μg/ml) at 24 hours MRSA 1, MRSA 1, 24 hours
[4] = 24 h, read-out: MIC (μg/ml) at 24 hours MRSA 2, MRSA 2, 24 hours
[5] = bioassay ranking, read-out: MRSA

Row | SMILES | activity against VRE among analogues (VRE) | MIC (μg/ml) at 24 hours, VRE 1 (VRE) [µg/mL] | MIC (μg/ml) at 24 hours, VRE 2 (VRE) | MIC (μg/ml) at 24 hours, P. aeruginosa (Pseudomonas aeruginosa) [µg/mL] | MIC (μg/ml) at 24 hours, E. coli (Escherichia coli) [µg/mL] | activity against MRSA among analogues (MRSA) | MIC (μg/ml) at 24 hours, MRSA 1 (MRSA) | MIC (μg/ml) at 24 hours, MRSA 2 (MRSA) | MIC (VRE; [1]) [µg/mL] | MIC (VRE; [2]) [µg/mL] | MIC (Pseudomonas aeruginosa) [µg/mL] | MIC (Escherichia coli) [µg/mL] | MIC (MRSA; [3]) [µg/mL] | MIC (MRSA; [4]) [µg/mL] | MIC (MRSA; [5]) [µg/mL] | MRSA (MRSA; bioassay ranking) [µg/mL] | VRE (VRE; bioassay ranking, VRE) [µg/mL]
1 | CN(C)c1ccc(C=NNC(=N)NN=Cc2ccc(N(C)C)cc2O)c(O)c1 [NCL171] | greatest activity | 32 (≈ 83.5 µM) | >128 µg/mL | >128 | >128 | greatest activity | 128 µg/mL (≈ 334 µM) | 64 µg/mL (≈ 167 µM) |  |  |  |  |  |  |  |  | 
2 | Nc1nc(NNC(=O)c2ccccc2)cc(NNC(=O)c2ccccc2)n1 [NCL194] |  | >128 | >128 µg/mL | >128 | >128 |  | >128 µg/mL | >128 µg/mL |  |  |  |  |  |  |  |  | 
3 | Nc1nc(N/N=C/c2ccc(O)cc2)cc(N/N=C/c2ccc(O)cc2)n1 [NCL196, 4,4′-((1E,1′E)-((2-aminopyrimidine-4,6-diyl)bis(hydrazin-2-yl-1ylidene))bis(methanylylidene))diphenol] |  | 64 (≈ 176 µM) |  | 128 (≈ 352 µM) |  |  |  | 32 µg/mL (≈ 88.1 µM) | 32 (≈ 88.1 µM) | 64 (≈ 176 µM) | 64 (≈ 176 µM) | 64 (≈ 176 µM) | 32 (≈ 88.1 µM) | 64 (≈ 176 µM) |  |  | 
4 | CC(C)(C)c1ccc(/C=N/Nc2cc(N/N=C/c3ccc(C(C)(C)C)cc3)nc(N)n2)cc1.Cl.Cl [NCL198] |  | >128 | >128 µg/mL | >128 | >128 |  | >128 µg/mL | >128 µg/mL |  |  |  |  |  |  |  |  | 
5 | Nc1nc(N/N=C/c2ccccc2)cc(N/N=C/c2ccccc2)n1 [NCL199] |  |  |  |  |  | greatest activity | 4 µg/mL (≈ 12.1 µM) |  | > 128 | > 128 | > 128 | > 128 | 2 (≈ 6.04 µM) | 4 (≈ 12.1 µM) | 3.5 (≈ 10.6 µM) |  | 
6 | CC(C)(C)c1ccc(/C=N/Nc2cc(N/N=C/c3ccc(C(C)(C)C)cc3)nc(N)n2)cc1 [NCL200] |  | >128 | >128 µg/mL | >128 | >128 |  | >128 µg/mL | >128 µg/mL |  |  |  |  |  |  |  |  | 
7 | CN(C)c1ccc(/C=N/Nc2cc(N/N=C/c3ccc(N(C)C)cc3)nc(N)n2)cc1 [NCL201] |  | >128 | >128 µg/mL | >128 | >128 | greatest activity | 32 µg/mL and 64 µg/mL | 16 µg/mL and 32 µg/mL |  |  |  |  |  |  |  |  | 
8 | C/C(=N\Nc1cc(N/N=C(\C)c2ccc(Cl)cc2)nc(N)n1)c1ccc(Cl)cc1 [NCL204] | greatest activity |  |  |  |  | greatest activity | 8 µg/mL (≈ 18.7 µM) | 8 µg/mL (≈ 18.7 µM) | 64 (≈ 149 µM) | > 128 | > 128 | > 128 | 4 (≈ 9.34 µM) | 4 (≈ 9.34 µM) | 6 (≈ 14 µM) |  | 
9 | Nc1nc(N/N=C/c2ccccc2Cl)cc(N/N=C/c2ccccc2Cl)n1 [NCL205] | greatest activity | 64 (≈ 160 µM) | >128 µg/mL | >128 | >128 | greatest activity | 4 µg/mL and 8 µg/mL | 4 µg/mL and 8 µg/mL |  |  |  |  |  |  |  | 6 | 
10 | Cc1ccc(/C=N/Nc2nc(N)nc(N/N=C/c3ccc(C)cc3)n2)cc1 [NCL206] |  | >128 | >128 µg/mL | >128 | >128 |  | >128 µg/mL | >128 µg/mL |  |  |  |  |  |  |  |  | 
11 | Nc1nc(N/N=C/c2ccccc2O)nc(N/N=C/c2ccccc2O)n1 [NCL207] |  | >128 | >128 µg/mL | >128 | >128 | greatest activity | 16 µg/mL and 32 µg/mL | 32 µg/mL (≈ 87.8 µM) |  |  |  |  |  |  |  | 28 | 
12 | C/C(=N\Nc1nc(N)nc(N/N=C(\C)c2ccc(Cl)cc2)n1)c1ccc(Cl)cc1 [NCL208] |  | >128 | >128 µg/mL | >128 | >128 |  | >128 µg/mL | >128 µg/mL |  |  |  |  |  |  |  |  | 
13 | Nc1nc(N/N=C/c2cccc(O)c2)nc(N/N=C/c2cccc(O)c2)n1 [NCL209] |  | >128 | >128 µg/mL | >128 | >128 |  | >128 µg/mL | >128 µg/mL |  |  |  |  |  |  |  |  | 
14 | Nc1nc(N/N=C/c2ccc(C(F)(F)F)cc2)nc(N/N=C/c2ccc(C(F)(F)F)cc2)n1 [NCL210] | greatest activity | 128 (≈ 273 µM) | 32 µg/mL and 64 µg/mL | >128 | >128 |  | >128 µg/mL | >128 µg/mL |  |  |  |  |  |  |  |  | 
15 | Nc1nc(N/N=C/c2ccc(O)cc2)nc(N/N=C/c2ccc(O)cc2)n1 [NCL211] |  | >128 | >128 µg/mL | >128 | >128 |  | >128 µg/mL | >128 µg/mL |  |  |  |  |  |  |  |  | 
16 | Nc1nc(N/N=C/c2ccc(Br)cc2)nc(N/N=C/c2ccc(Br)cc2)n1 [NCL212] | greatest activity | 32 (≈ 65.3 µM) | 16 µg/mL (≈ 32.6 µM) | >128 | >128 |  | >128 µg/mL | >128 µg/mL and 128 µg/mL |  |  |  |  |  |  |  |  | 24
17 | Nc1nc(N/N=C/C2CCCCC2)nc(N/N=C/C2CCCCC2)n1 [NCL213] |  | >128 | >128 µg/mL | >128 | >128 |  | >128 µg/mL | >128 µg/mL |  |  |  |  |  |  |  |  | 
18 | Nc1nc(N/N=C/c2ccccc2)nc(N/N=C/c2ccccc2)n1 [NCL214] |  | >128 | >128 µg/mL | >128 | >128 |  | >128 µg/mL | >128 µg/mL |  |  |  |  |  |  |  |  | 
19 | Nc1nc(N/N=C/c2ccc(F)c(F)c2)cc(N/N=C/c2ccc(F)c(F)c2)n1 [NCL222] |  | >128 | >128 µg/mL | >128 | >128 |  | >128 µg/mL | >128 µg/mL |  |  |  |  |  |  |  |  | 
20 | CC(=O)Nc1ccc(/C=N/Nc2cc(N/N=C/c3ccc(NC(C)=O)cc3)nc(N)n2)cc1 [NCL223] |  | >128 | >128 µg/mL | >128 | >128 |  | >128 µg/mL | >128 µg/mL |  |  |  |  |  |  |  |  | 
21 | CCOC(=O)N(/N=C/c1ccc(Cl)cc1)C(N)=N/N=C/c1ccc(Cl)cc1 [NCL224] |  | >128 | >128 µg/mL | >128 | >128 |  | >128 µg/mL | >128 µg/mL |  |  |  |  |  |  |  |  | 
22 | CC(C)COC(=O)N(N=Cc1ccc(Cl)cc1)C(N)=NN=Cc1ccc(Cl)cc1 [NCL225] |  | >128 | >128 µg/mL | >128 | >128 |  | >128 µg/mL | >128 µg/mL |  |  |  |  |  |  |  |  | 
23 | CCNC(=O)N(/N=C/c1ccc(Cl)cc1)C(N)=N/N=C/c1ccc(Cl)cc1 [NCL226] |  | >128 | >128 µg/mL | >128 | >128 |  | >128 µg/mL | >128 µg/mL |  |  |  |  |  |  |  |  | 

From US10253002B2, “Compounds and methods of treating infections” (Neoculi Pty Ltd., priority 2013, dated 2019)
